In one experiment the target is T1, HDAC6 human recombinant (Homo sapiens, UniProt Q9UBN7).
T1 construct: purchased Calbiochem 382180
T1 sequence (Q9UBN7 1-1215): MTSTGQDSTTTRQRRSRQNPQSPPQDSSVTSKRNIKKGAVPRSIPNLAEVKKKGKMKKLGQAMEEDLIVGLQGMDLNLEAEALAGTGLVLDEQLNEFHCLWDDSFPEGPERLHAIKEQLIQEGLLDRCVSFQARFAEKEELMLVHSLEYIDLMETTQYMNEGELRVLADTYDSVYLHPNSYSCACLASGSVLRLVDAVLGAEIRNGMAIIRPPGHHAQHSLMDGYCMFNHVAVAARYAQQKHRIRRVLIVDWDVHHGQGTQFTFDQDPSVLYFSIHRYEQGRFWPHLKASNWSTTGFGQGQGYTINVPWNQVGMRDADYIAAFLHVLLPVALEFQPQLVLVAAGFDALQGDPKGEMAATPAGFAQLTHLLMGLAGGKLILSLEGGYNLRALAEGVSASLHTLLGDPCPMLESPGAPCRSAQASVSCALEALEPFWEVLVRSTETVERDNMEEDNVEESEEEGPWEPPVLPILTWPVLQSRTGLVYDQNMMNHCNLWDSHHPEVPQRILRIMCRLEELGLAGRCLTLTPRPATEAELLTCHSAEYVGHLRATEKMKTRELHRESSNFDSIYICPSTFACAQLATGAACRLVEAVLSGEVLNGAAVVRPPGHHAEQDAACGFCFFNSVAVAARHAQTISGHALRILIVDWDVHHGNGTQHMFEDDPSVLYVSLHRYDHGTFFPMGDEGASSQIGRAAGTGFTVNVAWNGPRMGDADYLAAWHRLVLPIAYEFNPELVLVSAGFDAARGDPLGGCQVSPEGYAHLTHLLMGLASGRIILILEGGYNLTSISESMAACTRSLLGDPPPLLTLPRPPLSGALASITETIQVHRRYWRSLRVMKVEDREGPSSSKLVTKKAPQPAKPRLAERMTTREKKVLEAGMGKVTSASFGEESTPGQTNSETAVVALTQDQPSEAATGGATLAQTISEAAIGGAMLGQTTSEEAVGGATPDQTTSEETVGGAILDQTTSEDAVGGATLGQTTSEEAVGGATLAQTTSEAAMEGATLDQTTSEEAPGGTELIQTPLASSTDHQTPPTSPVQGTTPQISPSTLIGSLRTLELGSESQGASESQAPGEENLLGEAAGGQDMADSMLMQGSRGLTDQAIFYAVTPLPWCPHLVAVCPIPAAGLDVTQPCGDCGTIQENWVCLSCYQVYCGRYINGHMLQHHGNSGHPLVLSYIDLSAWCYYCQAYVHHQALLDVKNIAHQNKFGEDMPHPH
Kind of experiment: HDAC enzyme activity inhibition (in vitro), HDAC6 assay. Conditions: samples at 0.1, 1, 10, 100 and 1000 nM; 37° C. 60 minutes; fluorescence Ex 390, Em 460; read-out: HDAC6 IC50. The class given is biochemical. The procedure, abridged: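 HDAC6 human recombinant enzyme with fluorimetric substrate; […]. Reaction 60 min at 37° C, then developer 30 min at 37° C; fluorescence read at Ex 390/Em 460.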

In another experiment the target is T2, HDAC1 (Homo sapiens, UniProt Q13547).
T2 construct: purchased Enzolifesciences BML-AK511
T2 sequence (Q13547 whole entry): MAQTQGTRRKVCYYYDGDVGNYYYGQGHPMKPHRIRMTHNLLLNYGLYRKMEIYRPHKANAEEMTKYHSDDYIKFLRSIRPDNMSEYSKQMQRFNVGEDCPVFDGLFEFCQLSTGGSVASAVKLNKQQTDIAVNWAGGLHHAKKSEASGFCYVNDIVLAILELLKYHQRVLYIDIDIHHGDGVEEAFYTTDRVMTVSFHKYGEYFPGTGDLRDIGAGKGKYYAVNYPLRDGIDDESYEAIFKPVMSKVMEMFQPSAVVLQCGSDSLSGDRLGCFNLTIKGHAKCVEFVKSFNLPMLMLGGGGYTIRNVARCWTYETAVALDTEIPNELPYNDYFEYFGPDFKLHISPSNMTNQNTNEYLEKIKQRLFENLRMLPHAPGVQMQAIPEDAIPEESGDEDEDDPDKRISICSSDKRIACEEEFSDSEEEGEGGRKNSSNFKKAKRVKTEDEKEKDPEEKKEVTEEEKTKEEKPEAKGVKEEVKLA
Kind of experiment: HDAC enzyme activity inhibition (in vitro), HDAC1 Fluorimetric Drug Discovery Assay Kit. The class given is biochemical. Conditions: samples at 100, 1000 and 10000 nM; 37° C. 60 minutes; fluorescence Ex 390, Em 460; read-out: HDAC1 IC50. The procedure, abridged: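 Compound incubated with enzyme 60 min at 37° C, then developer 30 min at 37° C; fluorescence read at Ex 390/Em 460. HDAC1 via fluorimetric kit, compounds at 100, 1000 and 10000 nM; HDAC6 human recombinant, compounds at 0.1, 1, 10, 100 and 1000 nM.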

Where only a bound is given, the exact number is not on record here.

The results in this text go back to patent US20230092890A1, “1, 3, 4-Oxadiazole derivative compounds as histone deacetylase 6 inhibitor, and the pharmaceutical composition comprising the same” (Chong Kun Dang Pharmaceutical Corp., priority 2019, published 2023).

For orientation: IC50 means the concentration that gives 50% inhibition. For the molecule `CC(C)N1CCN(c2ccc(-c3cc4oc(=O)n(Cc5ccc(-c6nnc(C(F)F)o6)cn5)c4cc3F)cn2)CC1` [Compound 349, 3-((5-(5-(difluoromethyl)-1,3,4-oxadiazole-2-yl)pyridine-2-yl)methyl)-5-fluoro-6-(6-(4-isopropylpiperazine-1-yl)pyridine-3-yl)benzo[d]oxazole-2(3H)-one], the IC50 on HDAC6 human recombinant is 55 nM; at HDAC1 it was above 10000 nM.
For `O=c1oc2cc(-c3ccc(N4CCN(C5COC5)CC4)nc3)c(F)cc2n1Cc1ccc(-c2nnc(C(F)F)o2)cn1` [Compound 350, 3-((5-(5-(difluoromethyl)-1,3,4-oxadiazole-2-yl)pyridine-2-yl)methyl)-5-fluoro-6-(6-(4-(oxetan-3-yl)piperazine-1-yl)pyridine-3-yl)benzo[d]oxazole-2(3H)-one], in that order: 33 nM and above 10000 nM.
For `O=c1oc2cc(-c3ccc(N4CCN(CC(F)(F)F)CC4)nc3)c(F)cc2n1Cc1ccc(-c2nnc(C(F)F)o2)cn1` [Compound 351, 3-((5-(5-(difluoromethyl)-1,3,4-oxadiazole-2-yl)pyridine-2-yl)methyl)-5-fluoro-6-(6-(4-(2,2,2-trifluoroethyl)piperazine-1-yl)pyridine-3-yl)benzo[d]oxazole-2(3H)-one], the figures for the IC50 at HDAC6 human recombinant and on HDAC1 were 151 nM and above 10000 nM, respectively.
Turning to `CC(C)(C)OC(=O)N1CCC(n2cc(-c3ccc4c(c3)sc(=O)n4Cc3ccc(-c4nnc(C(F)F)o4)cn3)cn2)CC1` [Compound 352, tert-butyl 4-(4-(3-((5-(5-(difluoromethyl)-1,3,4-oxadiazole-2-yl)pyridine-2-yl)methyl)-2-oxo-2,3-dihydrobenzo[d]thiazole-6-yl)-1H-pyrazole-1-yl)piperidine-1-carboxylate], the results for the IC50 on HDAC6 human recombinant and on HDAC1 were 170 nM and above 10000 nM, respectively.
Turning to `CN1CCC(n2cc(-c3ccc4c(c3)sc(=O)n4Cc3ccc(-c4nnc(C(F)F)o4)cn3)cn2)CC1` [Compound 353, 3-((5-(5-(difluoromethyl)-1,3,4-oxadiazole-2-yl)pyridine-2-yl)methyl)-6-(1-(1-methylpiperidine-4-yl)-1H-pyrazole-4-yl)benzo[d]thiazole-2(3H)-one], the IC50 at HDAC6 human recombinant was 19 nM; on HDAC1, above 10000 nM.
For `CC(C)N1CCC(n2cc(-c3ccc4c(c3)sc(=O)n4Cc3ccc(-c4nnc(C(F)F)o4)cn3)cn2)CC1` [Compound 354, 3-((5-(5-(difluoromethyl)-1,3,4-oxadiazole-2-yl)pyridine-2-yl)methyl)-6-(1-(1-isopropylpiperidine-4-yl)-1H-pyrazole-4-yl)benzo[d]thiazole-2(3H)-one], the concentration for half-maximal inhibition (IC50) at HDAC6 human recombinant was 16 nM; on HDAC1, above 10000 nM.
As for `O=c1sc2cc(-c3cnn(C4CCN(C5COC5)CC4)c3)ccc2n1Cc1ccc(-c2nnc(C(F)F)o2)cn1` [Compound 355, 3-((5-(5-(difluoromethyl)-1,3,4-oxadiazole-2-yl)pyridine-2-yl)methyl)-6-(1-(1-(oxetan-3-yl)piperidine-4-yl)-1H-pyrazole-4-yl)benzo[d]thiazole-2(3H)-on], the figures for the IC50 at HDAC6 human recombinant and on HDAC1 were 23 nM and above 10000 nM, respectively.
Regarding `O=c1sc2cc(-c3cnn(C4CCN(CC(F)(F)F)CC4)c3)ccc2n1Cc1ccc(-c2nnc(C(F)F)o2)cn1` [Compound 356, 3-((5-(5-(difluoromethyl)-1,3,4-oxadiazole-2-yl)pyridine-2-yl)methyl)-6-(1-(1-(2,2,2-trifluoroethyl)piperidine-4-yl)-1H-pyrazole-4-yl)benzo[d]thiazole-2(3H)-one], the values for the 50% inhibitory concentration (IC50) at HDAC6 human recombinant and on HDAC1 were 84 nM and above 10000 nM, respectively.
With `O=c1sc2cc(-c3cnn(C4CCN(CC5(F)CC5)CC4)c3)ccc2n1Cc1ccc(-c2nnc(C(F)F)o2)cn1` [Compound 357, 3-((5-(5-(difluoromethyl)-1,3,4-oxadiazole-2-yl)pyridine-2-yl)methyl)-6-(1-(1-((1-fluorocyclopropyl)methyl)piperidine-4-yl)-1H-pyrazole-4-yl)benzo[d]thiazole-2(3H)-one], the IC50 is 42 nM at HDAC6 human recombinant and above 10000 nM on HDAC1.
In the case of `CC(C)(C)OC(=O)N1CCC(n2cc(-c3cc4oc(=O)n(Cc5ccc(-c6nnc(C(F)F)o6)cn5)c4cc3F)cn2)CC1` [Compound 358, tert-butyl 4-(4-(3-((5-(5-(difluoromethyl)-1,3,4-oxadiazole-2-yl)pyridine-2-yl)methyl)-5-fluoro-2-oxo-2,3-dihydrobenzo[d]oxazole-6-yl)-1H-pyrazole-1-yl)piperidine-1-carboxylate], the half-inhibitory concentration (IC50) on HDAC6 human recombinant was 130 nM; at HDAC1, above 10000 nM.
Consider `O=c1oc2cc(-c3cnn(C4CCNCC4)c3)c(F)cc2n1Cc1ccc(-c2nnc(C(F)F)o2)cn1` [Compound 359, 3-((5-(5-(difluoromethyl)-1,3,4-oxadiazole-2-yl)pyridine-2-yl)methyl)-5-fluoro-6-(1-(piperidine-4-yl)-1H-pyrazole-4-yl)benzo[d]oxazole-2(3H)-one], for which the half-inhibitory concentration (IC50) on HDAC6 human recombinant is 33 nM; at HDAC1, above 10000 nM.
As for `CN1CCC(n2cc(-c3cc4oc(=O)n(Cc5ccc(-c6nnc(C(F)F)o6)cn5)c4cc3F)cn2)CC1` [Compound 360, 3-((5-(5-(difluoromethyl)-1,3,4-oxadiazole-2-yl)pyridine-2-yl)methyl)-5-fluoro-6-(1-(1-methylpiperidine-4-yl)-1H-pyrazole-4-yl)benzo[d]oxazole-2(3H)-one], the figures for the IC50 at HDAC6 human recombinant and on HDAC1 were 27 nM and above 10000 nM, respectively.
Turning to `CC(C)N1CCC(n2cc(-c3cc4oc(=O)n(Cc5ccc(-c6nnc(C(F)F)o6)cn5)c4cc3F)cn2)CC1` [Compound 361, 3-((5-(5-(difluoromethyl)-1,3,4-oxadiazole-2-yl)pyridine-2-yl)methyl)-5-fluoro-6-(1-(1-isopropylpiperidine-4-yl)-1H-pyrazole-4-yl)benzo[d]oxazole-2(3H)-one], the IC50 on HDAC6 human recombinant is 23 nM; on HDAC1 it was above 10000 nM.
For the molecule `O=c1oc2cc(-c3cnn(C4CCN(C5COC5)CC4)c3)c(F)cc2n1Cc1ccc(-c2nnc(C(F)F)o2)cn1` [Compound 362, 3-((5-(5-(difluoromethyl)-1,3,4-oxadiazole-2-yl)pyridine-2-yl)methyl)-5-fluoro-6-(1-(1-(oxetan-3-yl)piperidine-4-yl)-1H-pyrazole-4-yl)benzo[d]oxazole-2(3H)-one], the figures for the IC50 on HDAC6 human recombinant and on HDAC1 were 31 nM and above 10000 nM, respectively.
Take `O=c1oc2cc(-c3cnn(C4CCN(CC(F)(F)F)CC4)c3)c(F)cc2n1Cc1ccc(-c2nnc(C(F)F)o2)cn1` [Compound 363, 3-((5-(5-(difluoromethyl)-1,3,4-oxadiazole-2-yl)pyridine-2-yl)methyl)-5-fluoro-6-(1-(1-(2,2,2-trifluoroethyl)piperidine-4-yl)-1H-pyrazole-4-yl)benzo[d]oxazole-2(3H)-one]: the figures for the IC50 on HDAC6 human recombinant and on HDAC1 were 75 nM and above 10000 nM, respectively.
Consider `CN1CCN(c2cc(-c3cc4oc(=O)n(Cc5ccc(-c6nnc(C(F)F)o6)cn5)c4cc3F)ccn2)CC1` [Compound 364, 3-((5-(5-(difluoromethyl)-1,3,4-oxadiazole-2-yl)pyridine-2-yl)methyl)-5-fluoro-6-(2-(4-methylpiperazine-1-yl)pyridine-4-yl)benzo[d]oxazole-2(3H)-one], for which the IC50 at HDAC6 human recombinant is 26 nM; on HDAC1, above 10000 nM.
On to `CC(C)N1CCN(c2cc(-c3cc4oc(=O)n(Cc5ccc(-c6nnc(C(F)F)o6)cn5)c4cc3F)ccn2)CC1` [Compound 365, 3-((5-(5-(difluoromethyl)-1,3,4-oxadiazole-2-yl)pyridine-2-yl)methyl)-5-fluoro-6-(2-(4-isopropylpiperazine-1-yl)pyridine-4-yl)benzo[d]oxazole-2(3H)-one], for which the concentration for half-maximal inhibition (IC50) at HDAC6 human recombinant is 33 nM; on HDAC1, above 10000 nM.
